Data on one molecule can be found in US20050191267A1, “Anti-photoaging cosmeceutical composition” (priority 2004, published 2005).

This assay relates to inflamed ears of experimental mice. In words: Anti-inflammatory activity on ethyl phenyl propyolate-inflamed mice ears. Type of assay: in vivo. As for the experimental part: The test for anti-inflammatory activity can be done on lab mice by applying ethyl phenyl propyolate on mice ears at a concentration of 1 mg per ear to induce inflammation. The fullest swollen ear can be observed 1 hour after the application, then the tested extracts and reference compound, dexamethasone, are applied onto the inflamed ears at a dose of 0.05 mg/ear. The reduction in the thickness of the ears in comparison with the control group indicates anti-inflammatory activity, as shown in Table 1.

On to `C[C@@H]1C[C@H]2[C@@H]3CCC4=CC(=O)C=C[C@]4(C)[C@@]3(F)[C@@H](O)C[C@]2(C)[C@@]1(O)C(=O)CO` [Anti-inflammatory, Dexamethasone], for which the “Percentage reduction of inflamed ears” value is recorded as 0% (0 min, ethyl phenyl propyolate 1 mg per ear); 54.253% (60 min after inducer (fullest swelling, time of application), 0.05 mg/ear); 42.533% (90 min, 0.05 mg/ear topical); 38.752% (120 min, 0.05 mg/ear topical); 25.142% (240 min, 0.05 mg/ear topical); 13.422% (360 min, 0.05 mg/ear topical). Moreover, under “480 min, 0.05 mg/ear topical”, the “Percentage reduction of inflamed ears” value came out at 11.531%.
